Laboratory results reported in ChEMBL document CHEMBL3259683, “Carbonic anhydrase inhibitors. Inhibition of human cytosolic isoforms I and II with (reduced) Schiff's bases incorporating sulfonamide, carboxylate and carboxymethyl moieties” (Bioorg Med Chem, 2014).

How the values were obtained:
[1] = Solubility of the compound in water; assay type: physicochemical; conditions: buffer
[2] = target: Carbonic anhydrase 1 (Homo sapiens, UniProt P00915); assay: Inhibition of human carbonic anhydrase 1-catalyzed CO2 hydration preincubated for 10 mins by stopped-flow assay
Sequence of Carbonic anhydrase 1 (P00915 whole entry): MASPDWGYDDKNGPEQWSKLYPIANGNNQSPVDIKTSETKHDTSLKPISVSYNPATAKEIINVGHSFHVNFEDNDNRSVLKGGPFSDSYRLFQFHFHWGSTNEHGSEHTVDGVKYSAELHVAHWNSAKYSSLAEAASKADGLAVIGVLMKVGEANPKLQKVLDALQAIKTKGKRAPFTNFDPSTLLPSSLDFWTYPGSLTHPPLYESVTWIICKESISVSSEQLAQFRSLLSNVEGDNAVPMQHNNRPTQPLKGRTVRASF

[3] = target: Carbonic anhydrase 2 (Homo sapiens, UniProt P00918); assay: Inhibition of human carbonic anhydrase 2-catalyzed CO2 hydration preincubated for 10 mins by stopped-flow assay
[4] = species on record: Homo sapiens; assay: Selectivity ratio of Ki for human carbonic anhydrase 2 to Ki for human carbonic anhydrase 1

| Compound | solubility [1] | Ki [2] [nM] | Ki [3] [nM] | Ratio Ki [4] |
| --- | --- | --- | --- | --- |
| COC(=O)c1ccc(NCc2ccc(O)cc2)cc1 | soluble | 209 | – | – |
| Cl.NS(=O)(=O)c1ccc(CNCc2ccc(O)cc2)cc1 | soluble | 59.5 | – | – |
| CC(C)(C)c1ccc(CNc2ccc(S(N)(=O)=O)cc2)cc1 | soluble | 18.7 | – | – |
| CC(C)(C)c1ccc(/C=N/Cc2ccc(S(N)(=O)=O)cc2)cc1.Cl | soluble | 72 | – | – |
| CC(C)(C)c1ccc(CNc2ccc(C(=O)O)cc2)cc1 | soluble | 266 | – | – |
| CC(C)(C)c1ccc(/C=N/CCc2ccc(S(N)(=O)=O)cc2)cc1 | soluble | 665 | 11.2 | – |
| COc1ccc(O)c(CNc2ccc(C(=O)O)cc2)c1 | soluble | 189 | – | – |
| COC(=O)c1ccc(/N=C/c2ccccc2)cc1 | soluble | 8600 | – | – |
| COC(=O)c1ccc(NCc2ccccc2)cc1 | soluble | 200 | – | 111 |
| COc1ccc(O)c(CNc2ccc(S(N)(=O)=O)cc2)c1 | soluble | 23.5 | – | – |
| NS(=O)(=O)c1ccc(CC/N=C/c2ccc(O)cc2)cc1 | soluble | 105 | 43 | – |
| O=C(O)c1ccc(/N=C/c2ccccc2)cc1 | soluble | 1230 | – | – |
| COC(=O)c1ccc(NCc2ccc(C(C)(C)C)cc2)cc1 | soluble | 251 | – | – |
| COC(=O)c1ccc(NCc2cc(OC)ccc2O)cc1 | soluble | 228 | – | 23 |
| NS(=O)(=O)c1ccc(NCc2ccc(O)cc2)cc1 | soluble | 29 | 702 | – |
| O=C(O)c1ccc(/N=C/c2ccc(O)cc2)cc1 | soluble | – | – | – |
| Cl.NS(=O)(=O)c1ccc(CNCc2ccccc2)cc1 | soluble | 30.3 | – | – |
| NS(=O)(=O)c1ccc(CCNCc2ccc(O)cc2)cc1 | soluble | 92.1 | 236 | – |
| COc1ccc(O)c(/C=N/c2ccc(C(=O)O)cc2)c1 | soluble | 1290 | – | – |

| Compound | solubility [1] | Ki [2] [nM] | Ki [3] [nM] | Ratio Ki [4] |
| --- | --- | --- | --- | --- |
| CC(C)(C)c1ccc(CNCc2ccc(S(N)(=O)=O)cc2)cc1.Cl | soluble | 25.5 | – | – |
| O=C(O)c1ccc(NCc2ccc(O)cc2)cc1 | soluble | 116 | – | – |
| NS(=O)(=O)c1ccc(CCNCc2ccccc2)cc1 | soluble | – | – | – |
| COC(=O)c1ccc(/N=C/c2ccc(C(C)(C)C)cc2)cc1 | soluble | 7460 | – | – |
| COC(=O)c1ccc(/N=C/c2ccc(O)cc2)cc1 | soluble | 1040 | – | – |
| NS(=O)(=O)c1ccc(/N=C/c2ccc(O)cc2)cc1 | soluble | 80 | 11.1 | – |
| NS(=O)(=O)c1ccc(CC/N=C/c2ccccc2)cc1 | soluble | – | – | – |
| NS(=O)(=O)c1ccc(/N=C/c2ccccc2)cc1 | soluble | 311 | – | – |
| COC(=O)c1ccc(/N=C/c2cc(OC)ccc2O)cc1 | soluble | 7450 | – | – |
| CC(C)(C)c1ccc(/C=N/c2ccc(C(=O)O)cc2)cc1 | soluble | 8270 | – | – |
| Cl.NS(=O)(=O)c1ccc(C/N=C/c2ccccc2)cc1 | soluble | 93 | – | – |
| CC(C)(C)c1ccc(CNCCc2ccc(S(N)(=O)=O)cc2)cc1 | soluble | 50.3 | 8.6 | – |
| CC(C)(C)c1ccc(/C=N/c2ccc(S(N)(=O)=O)cc2)cc1 | soluble | 85 | – | – |
| COc1ccc(O)c(/C=N/CCc2ccc(S(N)(=O)=O)cc2)c1 | soluble | 70 | 12.6 | – |
| COc1ccc(O)c(/C=N/Cc2ccc(S(N)(=O)=O)cc2)c1.Cl | soluble | 92 | – | – |
| COc1ccc(O)c(/C=N/c2ccc(S(N)(=O)=O)cc2)c1 | soluble | 52 | – | – |
| COc1ccc(O)c(CNCc2ccc(S(N)(=O)=O)cc2)c1.Cl | soluble | 51.9 | – | – |
| COc1ccc(O)c(CNCCc2ccc(S(N)(=O)=O)cc2)c1 | soluble | 56 | 51.5 | – |
| O=C(O)c1ccc(NCc2ccccc2)cc1 | soluble | 56.7 | – | – |
